In the assay the target is T1, rh-integrin α4β7/LPAM-1 (Homo sapiens, UniProt P13612+P26010).
T1 sequence (P13612 34-977 limits assumed): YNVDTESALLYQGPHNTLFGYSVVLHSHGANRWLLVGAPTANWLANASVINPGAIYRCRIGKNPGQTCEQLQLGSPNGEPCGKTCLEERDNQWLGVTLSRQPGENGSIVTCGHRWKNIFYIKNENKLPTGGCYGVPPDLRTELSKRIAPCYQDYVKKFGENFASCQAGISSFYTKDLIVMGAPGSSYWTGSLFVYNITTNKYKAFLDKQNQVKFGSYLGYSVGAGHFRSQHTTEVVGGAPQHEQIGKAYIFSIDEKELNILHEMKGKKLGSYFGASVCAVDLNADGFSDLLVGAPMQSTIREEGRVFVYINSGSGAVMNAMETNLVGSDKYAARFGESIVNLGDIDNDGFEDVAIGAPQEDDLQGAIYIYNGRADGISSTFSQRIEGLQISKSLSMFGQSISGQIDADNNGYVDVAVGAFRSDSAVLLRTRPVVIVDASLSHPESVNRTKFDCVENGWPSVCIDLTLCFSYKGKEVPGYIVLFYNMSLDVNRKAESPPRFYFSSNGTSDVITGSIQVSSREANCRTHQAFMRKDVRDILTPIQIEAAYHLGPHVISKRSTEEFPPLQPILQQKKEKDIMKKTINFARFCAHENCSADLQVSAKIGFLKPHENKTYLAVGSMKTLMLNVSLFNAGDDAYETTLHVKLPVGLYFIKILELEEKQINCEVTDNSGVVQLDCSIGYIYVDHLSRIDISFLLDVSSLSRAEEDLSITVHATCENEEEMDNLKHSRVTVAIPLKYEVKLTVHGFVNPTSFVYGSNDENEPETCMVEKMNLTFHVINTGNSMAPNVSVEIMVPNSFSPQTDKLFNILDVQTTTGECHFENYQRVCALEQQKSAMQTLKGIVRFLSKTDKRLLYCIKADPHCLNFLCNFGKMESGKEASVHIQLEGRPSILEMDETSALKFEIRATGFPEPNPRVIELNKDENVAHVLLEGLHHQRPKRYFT
T1 sequence (P26010 20-723 limits assumed): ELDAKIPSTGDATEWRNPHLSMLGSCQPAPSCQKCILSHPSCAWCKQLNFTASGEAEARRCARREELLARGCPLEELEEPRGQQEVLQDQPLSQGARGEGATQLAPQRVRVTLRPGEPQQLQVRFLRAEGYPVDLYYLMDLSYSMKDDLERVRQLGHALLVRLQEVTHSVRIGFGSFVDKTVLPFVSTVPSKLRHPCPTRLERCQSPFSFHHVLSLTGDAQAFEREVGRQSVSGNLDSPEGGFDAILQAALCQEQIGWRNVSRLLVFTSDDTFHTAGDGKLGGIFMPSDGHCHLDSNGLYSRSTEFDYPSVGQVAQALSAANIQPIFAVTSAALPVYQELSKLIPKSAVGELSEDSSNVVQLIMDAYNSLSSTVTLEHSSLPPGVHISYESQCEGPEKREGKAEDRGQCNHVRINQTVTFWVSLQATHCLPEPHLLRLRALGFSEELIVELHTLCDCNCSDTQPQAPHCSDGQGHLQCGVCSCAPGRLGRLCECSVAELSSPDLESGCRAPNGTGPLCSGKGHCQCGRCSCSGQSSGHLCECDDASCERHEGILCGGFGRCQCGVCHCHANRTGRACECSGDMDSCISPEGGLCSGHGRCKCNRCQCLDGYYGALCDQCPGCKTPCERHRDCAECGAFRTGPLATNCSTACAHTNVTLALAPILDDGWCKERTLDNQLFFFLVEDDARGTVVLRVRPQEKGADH
Kind of assay: α4β7-MadCAM Competition ELISA (Example 4). The format is binding. Conditions: Table 3 Representative compounds; inhibition of MAdCAM binding to coated α4β7; read-out: IC50. As for the experimental part:
After washing with wash buffer, 200 μL assay buffer was added to each well and incubated for one hour at 28° C. After another wash with wash buffer, 100 μL of a MAdCAM and peptide mixture in assay buffer was added to each well and incubated for one hour at 28° C., followed by washing with wash buffer.
A general note: ELISA stands for enzyme-linked immunosorbent assay.

Numbered stars: 1 amine (or outer) side, 2 acyl side, 3 side chain; on linkers, the order of the positions; unused ones are H or OH. Bridge positions count the residues as written; N and C are the ends. Square brackets hold non-standard residues; d marks the D form. Peptide text beside a SMILES is read from it. X3 = O=C(/C=N/OCCCCCCOc1cc(C[*:2])cc(C[*:3])c1)[*:1]; X5 = O=C(CCCCCCOc1cc(C[*:2])cc(C[*:3])c1)[*:1]; tBuAla = CC(C)(C)C[C@H](N)C(=O)O; hSer = N[C@@H](CCO)C(=O)O; Nle = CCCC[C@H](N)C(=O)O

The IC50 is the concentration that gives 50% inhibition. For the compound `CC[C@H](C)[C@@H]1NC(=O)[C@H](Cc2ccc(O)cc2)NC(=O)[C@H](CC(C)C)NC(=O)[C@@H]2CCCN2C(=O)[C@@H]2CSCc3cc(cc(c3)OCCCCCCO/N=C/C(=O)N[C@@H](CCSC)C(=O)N2)CSC[C@@H](C(N)=O)NC(=O)[C@H](Cc2cnc[nH]2)NC(=O)[C@H](C(C)C)NC1=O` [compound 72, TSL6- SMCPLYIVHC] (MCPLYIVHC-NH2; linker N-2-9 via X3), the IC50 came out at 29.4 µM.

Consider `CC(C)C[C@@H]1NC(=O)/C=N/OCCCCCCOc2cc3cc(c2)CSC[C@H](NC1=O)C(=O)N[C@@H](Cc1ccc(O)cc1)C(=O)N1CCC[C@H]1C(=O)N[C@@H](CC(=O)O)C(=O)N[C@@H]([C@@H](C)O)C(=O)N[C@@H](Cc1ccc(O)cc1)C(=O)N[C@@H](Cc1cnc[nH]1)C(=O)N[C@H](C(N)=O)CSC3` [compound 73, TSL6- SLCYPDTYHC] (LCYPDTYHC-NH2; linker N-2-9 via X3), for which the IC50 is 30.6 µM.

`CC(C)C[C@H]1NC(=O)[C@@H]2CCCN2C(=O)[C@@H]2CSCc3cc(cc(c3)OCCCCCCO/N=C/C(=O)N[C@@H](C)C(=O)N2)CSC[C@@H](C(N)=O)NC(=O)[C@H](CO)NC(=O)[C@@H]2CCCN2C(=O)[C@H](C(C)C)NC(=O)[C@H](CC(=O)O)NC1=O` [compound 74, TSL6- SACPLDVPSC] (ACP[dL]DVPSC-NH2; linker N-2-9 via X3): the IC50 turned out to be 31 µM.

Regarding `CSCC[C@@H]1NC(=O)[C@@H]2CCCN2C(=O)[C@@H]2CSCc3cc(cc(c3)OCCCCCCO/N=C/C(=O)N[C@@H](C)C(=O)N2)CSC[C@@H](C(N)=O)NC(=O)[C@H](CCC(=O)O)NC(=O)CNC(=O)[C@H](Cc2c[nH]c3ccccc23)NC(=O)[C@H](C(C)C)NC(=O)[C@H](CC(=O)O)NC1=O` [compound 75, TSL6- SACPMDVWGEC] (ACPMDVWGEC-NH2; linker N-2-10 via X3), the IC50 came out at 31.3 µM.

As for `CCCC[C@@H]1NC(=O)[C@H](CO)NC(=O)[C@@H]2CSSC[C@@H](C(=O)N[C@@H](Cc3c[nH]c4ccccc34)C(=O)N[C@@H](CCC(N)=O)C(N)=O)NC(=O)[C@H](CC(C)C)NC(=O)[C@@H]([C@H](C)O)NC(=O)[C@H](CC(=O)O)NC(=O)[C@H](CO)NC(=O)[C@H](CCCNC(=N)N)NC(=O)[C@H](CSCC(=O)N[C@@H](CCCNC(=N)N)C(=O)N2)NC(=O)[C@H](CC(C)C)NC(=O)[C@H](CC(=O)O)NC1=O` [compound 76, Disulfide- RCS{Nle}DICRS DTLCWQ] ({CH2CO}-RCS[Nle]DLCRSD[dT]LCWQ-NH2; disulfide 2-13; thioether N-7), the half-maximal inhibitory concentration (IC50) came to 34.3 µM.

Regarding `CC(C)[C@@H]1NC(=O)[C@H](CCCCN)NC(=O)[C@@H]2CCCN2C(=O)[C@@H]2CCCN2C(=O)[C@H](CC(=O)O)NC(=O)[C@H](Cc2cnc[nH]2)NC(=O)[C@@H]2CSCc3cc(cc(c3)OCCCCCCO/N=C/C(=O)N[C@@H](CO)C(=O)N2)CSC[C@@H](C(N)=O)NC1=O` [compound 77, TSL6- SKCPADVPSC] (SCHDPPKVC-NH2; linker N-2-9 via X3), the IC50 was determined as 41.1 µM.

For the compound `CC[C@H](C)[C@@H]1NC(=O)[C@H](CC(=O)O)NC(=O)[C@H](C)NC(=O)[C@@H]2CCCN2C(=O)[C@@H]2CSCc3cc(cc(c3)OCCCCCCO/N=C/C(=O)N[C@@H](CCC(N)=O)C(=O)N2)CSC[C@@H](C(N)=O)NC(=O)[C@H]([C@@H](C)O)NC(=O)[C@@H]2CCCN2C1=O` [compound 78, TSL6- SQCPADIPTC] (QCPADIPTC-NH2; linker N-2-9 via X3), the IC50 was found to be 43.7 µM.

With `C[C@@H](O)[C@@H]1NC(=O)[C@H](CC(=O)O)NC(=O)[C@@H]2CCCN2C(=O)[C@H](Cc2ccc(O)cc2)NC(=O)[C@@H]2CSCc3cc(cc(c3)OCCCCCCO/N=C/C(=O)N[C@@H](CC(=O)O)C(=O)N2)CSC[C@@H](C(N)=O)NC(=O)[C@H](Cc2cnc[nH]2)NC(=O)[C@H](Cc2ccccc2)NC1=O` [compound 79, TSL6- SDCYPDTFHC] (DCYPDTFHC-NH2; linker N-2-9 via X3), the half-maximal inhibitory concentration (IC50) worked out at 53.5 µM.

Take `COCC[C@@H]1NC(=O)[C@@H]2CCCN2C(=O)[C@@H]2CSCc3cc(cc(c3)OCCCCCCC(=O)NCC(=O)N[C@@H](CCCNC(=N)N)C(=O)N2)CSC[C@@H](C(N)=O)NC(=O)[C@H](CCC(=O)O)NC(=O)[C@H](CCC(N)=O)NC(=O)[C@@H]2CCCN2C(=O)[C@H](CC(C)(C)C)NC(=O)[C@H](CC(=O)O)NC1=O` [compound 80, TSLC7-GQCP{Hse(OMe)} D{tBuAla}PQEC] (GRCP[hSer](Me)D[tBuAla]PQEC-NH2; linker N-3-11 via X5): the half-inhibitory concentration (IC50) was 55.9 µM.

For the compound `CC(C)C[C@@H]1NC(=O)[C@@H]2CCCN2C(=O)[C@@H]2CSCc3cc(cc(c3)OCCCCCCO/N=C/C(=O)N[C@@H](CCCCN)C(=O)N2)CSC[C@@H](C(N)=O)NC(=O)[C@H](CO)NC(=O)[C@@H]2CCCN2C(=O)[C@H](C(C)C)NC(=O)[C@H](C)NC1=O` [compound 81, TSL6- SKCPLAVPSC] (KCPLAVPSC-NH2; linker N-2-9 via X3), the half-inhibitory concentration (IC50) stood at 55.9 µM.

For the compound `CSCC[C@@H]1NC(=O)[C@@H]2CSCc3cc(cc(c3)OCCCCCCO/N=C/C(=O)NCC(=O)N2)CSC[C@@H](C(N)=O)NC(=O)[C@H](Cc2ccccc2)NC(=O)[C@H](C)NC(=O)[C@H](Cc2ccccc2)NC(=O)[C@H](CC(=O)O)NC(=O)[C@H](CC(=O)O)NC1=O` [compound 82, TSL6- SGCMDDFAFC] (GCMDDFAFC-NH2; linker N-2-9 via X3), the IC50 was found to be 59.1 µM.

Regarding `CC[C@H](C)[C@@H]1NC(=O)[C@H](CCCNC(=N)N)NC(=O)CNC(=O)[C@H](Cc2ccc(O)cc2)NC(=O)[C@H](Cc2c[nH]c3ccccc23)NC(=O)[C@H](Cc2c[nH]cn2)NC(=O)[C@@H]2CSCc3cc(cc(c3)OCCCCCCO/N=C/C(=O)N[C@@H](CC(N)=O)C(=O)N2)CSC[C@@H](C(N)=O)NC1=O` [compound 83, TSL6- SNCHWYGRIC] (NCHWYGRIC-NH2; linker N-2-9 via X3), the IC50 came out at 63.8 µM.

On to `C[C@@H](O)[C@@H]1NC(=O)[C@H](CC(=O)O)NC(=O)[C@@H]2CCCN2C(=O)[C@H](Cc2ccccc2)NC(=O)[C@@H]2CSCc3cc(cc(c3)OCCCCCCO/N=C/C(=O)N[C@@H](CC(=O)O)C(=O)N2)CSC[C@@H](C(N)=O)NC(=O)[C@H](Cc2cnc[nH]2)NC(=O)[C@H](Cc2ccc(O)cc2)NC1=O` [compound 84, TSL6- SDCFPDTYHC] (DCFPDTYHC-NH2; linker N-2-9 via X3), for which the half-inhibitory concentration (IC50) worked out at 65.7 µM.

As for `CC[C@H](C)[C@@H]1NC(=O)[C@H](C(C)C)NC(=O)[C@H](CC(=O)O)NC(=O)[C@H](CC(C)C)NC(=O)[C@H](CCSC)NC(=O)[C@@H]2CSCc3cc(cc(c3)OCCCCCCO/N=C/C(=O)N[C@@H](C)C(=O)N2)CSC[C@@H](C(N)=O)NC(=O)[C@H](CO)NC1=O` [compound 85, TSL6- SACMLDVISC] (ACMLDVISC-NH2; linker N-2-9 via X3), the concentration for half-maximal inhibition (IC50) was determined as 66.6 µM.

Take `CC(C)C[C@@H]1NC(=O)CNC(=O)[C@H](Cc2ccc(O)cc2)NC(=O)[C@H](CC(=O)O)NC(=O)[C@H](CO)NC(=O)[C@@H]2CSCc3cc(cc(c3)OCCCCCCO/N=C/C(=O)N[C@@H](C)C(=O)N2)CSC[C@@H](C(N)=O)NC(=O)[C@H](CCC(N)=O)NC1=O` [compound 86, TSL6- SACSDTGLQC] (ACSDYGLQC-NH2; linker N-2-9 via X3): the half-maximal inhibitory concentration (IC50) came out at 70.7 µM.

Turning to `C[C@@H](O)[C@@H]1NC(=O)[C@H](CC(=O)O)NC(=O)[C@@H]2CCCN2C(=O)[C@H](Cc2ccc(O)cc2)NC(=O)[C@@H]2CSCc3cc(cc(c3)OCCCCCCO/N=C/C(=O)N[C@@H](CC(=O)O)C(=O)N2)CSC[C@@H](C(N)=O)NC(=O)[C@H](Cc2cnc[nH]2)NC(=O)[C@H](Cc2ccc(O)cc2)NC1=O` [compound 88, TSL6- SDCYPDTYHC] (DCYPDTYHC-NH2; linker N-2-9 via X3), the IC50 stood at 72.5 µM.

The values are drawn from patent publication US20230145835A1, “Modulators of Alpha-4-beta-7 Integrin and MAdCAM” (48HD Biopharma Inc., priority 2021, published 2023).
